Measured values from ChEMBL document CHEMBL3351415, “Synthesis, antimicrobial and anti-biofilm activities of novel Schiff base analogues derived from methyl-12-aminooctadec-9-enoate” (Bioorg Med Chem Lett, 2014).
pIC50: −log10 of the molar value. Converted amounts (≈) assume the structure as drawn.

Legend:
[1] = system: Staphylococcus aureus; experiment: Bactericidal activity against Staphylococcus aureus MTCC 96 incubated for 24 hrs; type: functional; settings: MTCC 96, 24 h
[2] = system: Staphylococcus aureus; experiment: Bactericidal activity against Staphylococcus aureus MLS-16 MTCC 2940 incubated for 24 hrs; type: functional; settings: MLS-16 MTCC 2940, 24 h
[3] = system: Bacillus subtilis; experiment: Bactericidal activity against Bacillus subtilis MTCC 121 incubated for 24 hrs; type: functional; settings: MTCC 121, 24 h
[4] = system: Staphylococcus aureus; experiment: Antimicrobial activity against Staphylococcus aureus MTCC 96 incubated for 24 hrs by well diffusion method; type: functional; settings: MTCC 96, 24 h
[5] = system: Staphylococcus aureus; experiment: Anti-biofilm activity against Staphylococcus aureus MTCC 96 assessed as inhibition of biofilm formation incubated for 24 hrs by crystal violet staining based modified biofilm inhibition assay; type: functional, organism-based; settings: MTCC 96, 24 h
[6] = system: Micrococcus luteus; experiment: Antimicrobial activity against Micrococcus luteus MTCC 2470 incubated for 24 hrs by well diffusion method; type: functional; settings: MTCC 2470, 24 h
[7] = system: Staphylococcus aureus; experiment: Antimicrobial activity against Staphylococcus aureus MLS-16 MTCC 2940 incubated for 24 hrs by well diffusion method; type: functional; settings: MLS-16 MTCC 2940, 24 h
[8] = Antimicrobial activity against Klebsiella […] incubated for 24 hrs by well diffusion method; type: functional, Raoultella planticola
[9] = system: Pseudomonas aeruginosa; experiment: Antimicrobial activity against Pseudomonas aeruginosa MTCC 2453 incubated for 24 hrs by well diffusion method; type: functional; settings: MTCC 2453, 24 h
[10] = system: Bacillus subtilis; experiment: Antimicrobial activity against Bacillus subtilis MTCC 121 incubated for 24 hrs by well diffusion method; type: functional; settings: MTCC 121, 24 h
[11] = system: Staphylococcus aureus; experiment: Anti-biofilm activity against Staphylococcus aureus MLS-16 MTCC 2940 assessed as inhibition of biofilm formation incubated for 24 hrs by crystal violet staining based modified biofilm inhibition assay; type: functional, organism-based; settings: MLS-16 MTCC 2940, 24 h
[12] = system: Bacillus subtilis; experiment: Anti-biofilm activity against Bacillus subtilis MTCC 121 assessed as inhibition of biofilm formation incubated for 24 hrs by crystal violet staining based modified biofilm inhibition assay; type: functional, organism-based; settings: MTCC 121, 24 h
[13] = system: Escherichia coli; experiment: Antimicrobial activity against Escherichia coli MTCC 739 incubated for 24 hrs by well diffusion method; type: functional; settings: MTCC 739, 24 h

Row | Structure (SMILES) | MBC [1] | MBC [2] | MBC [3] | MIC [4] | pIC50 [5] | MIC [6] | MIC [7] | MIC [8] | MIC [9] | MIC [10] | pIC50 [11] | pIC50 [12] | MIC [13]
1 | CCCCCCC(C/C=C\CCCCCCCC(=O)OC)/N=C\c1ccc(Cl)cc1 (stereo not given) | 18 µM (≈ 7.81 µg/mL) | 18 µM (≈ 7.81 µg/mL) | 9 µM (≈ 3.91 µg/mL) | 9 µM (≈ 3.91 µg/mL) | 5.32 | > 300 µM | 9 µM (≈ 3.91 µg/mL) | > 300 µM | > 300 µM | 9 µM (≈ 3.91 µg/mL) | 5.37 | 5.22 | > 300 µM
2 | CCCCCCC(C/C=C\CCCCCCCC(=O)OC)/N=C\c1ccc(Cl)cc1Cl (stereo not given) | – | – | – | > 300 µM | – | > 300 µM | > 300 µM | > 300 µM | > 300 µM | > 300 µM | – | – | > 300 µM
3 | CCCCCCC(C/C=C\CCCCCCCC(=O)OC)/N=C\c1ccc(F)cc1 (stereo not given) | – | – | – | 150 µM (≈ 62.6 µg/mL) | – | > 300 µM | 150 µM (≈ 62.6 µg/mL) | > 300 µM | > 300 µM | 150 µM (≈ 62.6 µg/mL) | – | – | > 300 µM
4 | CCCCCCC(C/C=C\CCCCCCCC(=O)OC)/N=C\c1ccccc1O (stereo not given) | – | – | – | > 300 µM | – | > 300 µM | > 300 µM | > 300 µM | > 300 µM | > 300 µM | – | – | > 300 µM
5 | CCCCCCC(C/C=C\CCCCCCCC(=O)OC)/N=C\c1ccc(O)cc1 (stereo not given) | 37.5 µM (≈ 15.6 µg/mL) | 37.5 µM (≈ 15.6 µg/mL) | 75.1 µM (≈ 31.2 µg/mL) | 18.7 µM (≈ 7.77 µg/mL) | 5.00 | > 300 µM | 18.7 µM (≈ 7.77 µg/mL) | > 300 µM | > 300 µM | 37.5 µM (≈ 15.6 µg/mL) | 5.04 | 4.71 | > 300 µM
6 | CCCCCCC(C/C=C\CCCCCCCC(=O)OC)/N=C\c1ccc(OC)cc1 (stereo not given) | 36.3 µM (≈ 15.6 µg/mL) | 36.3 µM (≈ 15.6 µg/mL) | 36.3 µM (≈ 15.6 µg/mL) | 18.1 µM (≈ 7.78 µg/mL) | 4.92 | > 300 µM | 36.3 µM (≈ 15.6 µg/mL) | > 300 µM | > 300 µM | 18.1 µM (≈ 7.78 µg/mL) | 4.63 | 5.10 | > 300 µM
7 | CCCCCCC(C/C=C\CCCCCCCC(=O)OC)/N=C\c1ccc(OC)cc1OC (stereo not given) | – | – | – | 67.9 µM (≈ 31.2 µg/mL) | – | > 300 µM | 33.9 µM (≈ 15.6 µg/mL) | > 300 µM | > 300 µM | 33.9 µM (≈ 15.6 µg/mL) | – | – | > 300 µM
8 | CCCCCCC(C/C=C\CCCCCCCC(=O)OC)/N=C\c1ccc(OC)c(OC)c1 (stereo not given) | 136 µM (≈ 62.5 µg/mL) | 67.9 µM (≈ 31.2 µg/mL) | 33.9 µM (≈ 15.6 µg/mL) | 67.9 µM (≈ 31.2 µg/mL) | 4.38 | > 300 µM | 33.9 µM (≈ 15.6 µg/mL) | > 300 µM | > 300 µM | 33.9 µM (≈ 15.6 µg/mL) | 4.61 | 4.67 | > 300 µM
9 | CCCCCCC(C/C=C\CCCCCCCC(=O)OC)/N=C\c1ccc(C#N)cc1 (stereo not given) | – | – | – | > 300 µM | – | > 300 µM | > 300 µM | > 300 µM | > 300 µM | > 300 µM | – | – | > 300 µM
10 | CCCCCCC(C/C=C\CCCCCCCC(=O)OC)/N=C\c1ccc(C)cc1 (stereo not given) | – | – | – | > 300 µM | – | > 300 µM | > 300 µM | > 300 µM | > 300 µM | > 300 µM | – | – | > 300 µM
11 | CCCCCCC(C/C=C\CCCCCCCC(=O)OC)/N=C\c1cccc(C)c1 (stereo not given) | – | – | – | 151 µM (≈ 62.6 µg/mL) | – | > 300 µM | 75.5 µM (≈ 31.2 µg/mL) | > 300 µM | > 300 µM | 75.5 µM (≈ 31.2 µg/mL) | – | – | > 300 µM
12 | CCCCCCC(C/C=C\CCCCCCCC(=O)OC)/N=C\c1cccc([N+](=O)[O-])c1 (stereo not given) | – | – | – | > 300 µM | – | > 300 µM | > 300 µM | > 300 µM | > 300 µM | > 300 µM | – | – | > 300 µM
13 | CCCCCCC(C/C=C\CCCCCCCC(=O)OC)/N=C\c1ccc(N(C)C)cc1 (stereo not given) | 17.6 µM (≈ 7.79 µg/mL) | 35.2 µM (≈ 15.6 µg/mL) | 70.5 µM (≈ 31.2 µg/mL) | 17.6 µM (≈ 7.79 µg/mL) | 5.02 | > 300 µM | 17.6 µM (≈ 7.79 µg/mL) | > 300 µM | > 300 µM | 35.2 µM (≈ 15.6 µg/mL) | 4.94 | 4.56 | > 300 µM
14 | CCCCCCC(C/C=C\CCCCCCCC(=O)OC)/N=C\c1ccc(O)c(OC)c1 (stereo not given) | 35 µM (≈ 15.6 µg/mL) | 35 µM (≈ 15.6 µg/mL) | 35 µM (≈ 15.6 µg/mL) | 17.5 µM (≈ 7.8 µg/mL) | 5.03 | > 300 µM | 17.5 µM (≈ 7.8 µg/mL) | > 300 µM | > 300 µM | 17.5 µM (≈ 7.8 µg/mL) | 5.10 | 4.99 | > 300 µM
15 | CCCCCCC(C/C=C\CCCCCCCC(=O)OC)/N=C\c1cc(OC)c(O)c(OC)c1 (stereo not given) | 16.4 µM (≈ 7.8 µg/mL) | 32.8 µM (≈ 15.6 µg/mL) | 16.4 µM (≈ 7.8 µg/mL) | 16.4 µM (≈ 7.8 µg/mL) | 5.14 | > 300 µM | 16.4 µM (≈ 7.8 µg/mL) | > 300 µM | > 300 µM | 16.4 µM (≈ 7.8 µg/mL) | 5.19 | 5.07 | > 300 µM
16 | CCCCCCC(C/C=C\CCCCCCCC(=O)OC)/N=C\C=C\c1ccc(N(C)C)cc1 (stereo not given) | 16.6 µM (≈ 7.78 µg/mL) | 33.3 µM (≈ 15.6 µg/mL) | 66.6 µM (≈ 31.2 µg/mL) | 16.6 µM (≈ 7.78 µg/mL) | 4.99 | > 300 µM | 16.6 µM (≈ 7.78 µg/mL) | > 300 µM | > 300 µM | 33.3 µM (≈ 15.6 µg/mL) | 5.09 | 4.66 | > 300 µM
17 | CCCCCCC(C/C=C\CCCCCCCC(=O)OC)/N=C\c1c[nH]c2ccccc12 (stereo not given) | 35.6 µM (≈ 15.6 µg/mL) | 35.6 µM (≈ 15.6 µg/mL) | 71.2 µM (≈ 31.2 µg/mL) | 17.8 µM (≈ 7.81 µg/mL) | 5.14 | > 300 µM | 17.8 µM (≈ 7.81 µg/mL) | > 300 µM | > 300 µM | 35.6 µM (≈ 15.6 µg/mL) | 5.02 | 4.66 | > 300 µM
18 | O=C(O)c1cn(C2CC2)c2cc(N3CCNCC3)c(F)cc2c1=O [CIPROFLOXACIN] | 2.7 µM (≈ 0.895 µg/mL) | 5.7 µM (≈ 1.89 µg/mL) | 5.7 µM (≈ 1.89 µg/mL) | 2.7 µM (≈ 0.895 µg/mL) | 6.00 | 2.7 µM (≈ 0.895 µg/mL) | 2.7 µM (≈ 0.895 µg/mL) | 2.7 µM (≈ 0.895 µg/mL) | 2.7 µM (≈ 0.895 µg/mL) | 2.7 µM (≈ 0.895 µg/mL) | – | 5.82 | 2.7 µM (≈ 0.895 µg/mL)
